Columns and labels:
[1] = tested on: DBTRG cells; assay: MTS/clonogenic antiproliferative and cell viability assay, DBTRG cells; assay type: cell-based; conditions: 72 hours, estimated from MTS and clonogenic assays
Method: (§9) MTT assay protocol: Day 1: cells plated in 96-well plates. Day 2: chemical agents (DMSO) are added to the wells containing cells(in triplicate). Day 3: 100 μM of MTS reagent is added to each well; ager incubating the plates for an hour, readings are taken using a spectrometer.

[2] = tested on: U-87 cells; assay: MTS/clonogenic antiproliferative and cell viability assay, U-87 cells; assay type: cell-based; conditions: Homo sapiens, U-87 MG, 72 hours, estimated from MTS and clonogenic assays
Method: as §9

[3] = tested on: U87 cells; assay: Tumor growth in glioblastoma mouse model (subcutaneous U87 cells); assay type: in vivo, mice; conditions: C4 50 mg/kg IP
Method: (§1) Female SCID mice were purchased six weeks old and were maintained in an animal facility, and all experiments were performed in compliance with NIH animal use guidelines using IACUC protocol. The 2x10^6 U87 cells or GL261 cells were injected into mice subcutaneously. When tumor size reached 100 mm^3, drug was introduced by IP daily, 5 days per week for several weeks. Tumor diameters were measured with calipers and tumor volume in mm^3 was calculated using this formula: tumor volume=(width)^2×Length/2. At the end of the experiment, tumor weight and volume were determined. Tumor samples were collected for Western blotting and for immunohistochemical analysis. Endpoints of anti-tumor efficacy include: 1) differences in tumor size between treated and control animals at termination of the experiment (T/C % and T-C4anal/T-C4%) and 2) differences in blood vessel density and lymphatic vessel density. One hour following the last dose, tumor tissues were snap frozen and Erk1/2, Akt, FAK and VEGFR-3 phosphorylation, as well as total protein levels (to ensure equal loading), were determined ex vivo by Western blot. Tumor tissues were sectioned and stained for total and phosphorylated FAK and VEGFR-3 in addition to TUNEL staining (apoptosis), Ki67 (proliferation), CD31 (angiogenesis) and LYVE1 (lymphangiogenesis). Necropsy was performed to evaluate drug toxicity. Experiments were repeated at least in triplicate, and data were reported as mean ±standard error of the mean. An ANOVA or student's t-test was used as appropriate to compare data between groups. Statistical significance was determined at P<0.05.

[4] = tested on: GL261 cells; assay: Tumor growth in glioma syngeneic mouse model (subcutaneous GL261 cells); assay type: in vivo, mice; conditions: C4 50 mg/kg IP
Method: as §1, with “Necropsy was performed to evaluate drug toxicity. Experiments were repeated at least in triplicate, and data were reported as mean ±standard error of the mean. An ANOVA or student's t-test was used as appropriate to compare data between groups.” left out

[5] = 7-day multiple-dose MTD toxicologic study of Suprastin (C4), oral gavage, CD-1 mice; assay type: in vivo; conditions: both sexes, CD-1, mouse, in vivo; oral gavage in mice, daily for 7 days
Method: (§2) • A 7-day, multiple-dose maximum tolerated dose toxicologic study of the drug Suprastin (C4) was performed in CD-1 mice.
(§3) • The drug Suprastin (C4) was the test article. The chemical name for Suprastin is chloropyramine hydrochloride or N-[(4-chlorophenyl) methyl]-N[2-(dimethylamino) ethyl] pyridin-2-amine. The test article was prepared in sterile water. The test article was prepared by the sponsor and delivered to the study director prior to the study. The test article was stored in the refrigerator (4° C.), protected from light. • Control article:
(§4) The CD-1 [Hsd:ICR(CD-1)] albino mouse was used. The CD-1 mouse is conventionally used in toxicity tests to provide information on which human hazards can be judged, and is one of the choices of species preferred by regulatory agencies. Mice were obtained from Harlan (Frederick, Md.).
(§5) Mice were acclimated for 2 days prior to testing. 20 male and 20 female mice, nulliparous and non-pregnant, were used. Normal weight gain, appearance and behavior were factors used to select healthy mice for testing. Only naive animals were used. Mice weighed 23-33 grams (males) and 19-26 grams (females), and were in good health at the start of the study. Mice weighed 22-35 grams (males) and 18-26 grams (females) at the conclusion of the study.
(§6) Mice were randomly assigned to 4 experimental groups (controls, low-dose, medium-dose, and high-dose) consisting of 5 males and 5 females. Mice were identified via cage cards, tail markings, and ear punch. Mouse identification codes contained information regarding experimental group (C=control, L=low-dose, IVI=medium-dose, H=high-dose), sex (M−male, F−female), and animal number (1-5).
(§7) • A 7-day multiple-dose MTD toxicology study was performed.
(§8) • The test article Suprastin (C4) was prepared in sterile water and administered orally (PO) via orogastric gavage as a single daily dose on days 0-6 in the morning. The compound was diluted with the control article (sterile water) so as not to exceed a volume of […]. The test article (Suprastin) was stored in the refrigerator (4° C.) and allowed to come to room temperature prior to administration. Mice were randomly allocated into 4 groups (controls, low-dose, medium-dose, and high-dose) consisting of 5 males and 5 females. Dosages were calculated on a “per mouse” basis, not on a mg/kg basis. Mice in the low-dose group received the equivalent of a 75 mg/kg dose for a 20 g mouse (1.5 mg). Mice in the medium-dose group received the equivalent of a 150 mg/kg dose for a 20 g mouse (3 mg). Mice in the high-dose group received the equivalent of a 300 mg/kg dose for a 20 g mouse (6 mg). Mice in the control group received 100pL of the control article (sterile water). Groups received the following doses, drug concentrations, and gavage volumes, as outlined in Table 4: […]

[6] = tested on: CD-1 mice; assay: as above; assay type: in vivo
Method: as §2, §3, §4, §5, §6, §7, §8

[7] = target: T1, FAK (Homo sapiens, UniProt Q05397); assay: FAK Y397 phosphorylation; assay type: biochemical; conditions: various assays
[8] = target: T1, FAK; conditions: literature report; cited from earlier work
[9] = tested on: glioma and ovarian tumor; conditions: literature report; cited from earlier work
[10] = target: IGFR kinase (Homo sapiens, UniProt P08069); conditions: literature report; cited from earlier work
[11] = literature report; cited from earlier work

T1 sequence (Q05397 whole entry): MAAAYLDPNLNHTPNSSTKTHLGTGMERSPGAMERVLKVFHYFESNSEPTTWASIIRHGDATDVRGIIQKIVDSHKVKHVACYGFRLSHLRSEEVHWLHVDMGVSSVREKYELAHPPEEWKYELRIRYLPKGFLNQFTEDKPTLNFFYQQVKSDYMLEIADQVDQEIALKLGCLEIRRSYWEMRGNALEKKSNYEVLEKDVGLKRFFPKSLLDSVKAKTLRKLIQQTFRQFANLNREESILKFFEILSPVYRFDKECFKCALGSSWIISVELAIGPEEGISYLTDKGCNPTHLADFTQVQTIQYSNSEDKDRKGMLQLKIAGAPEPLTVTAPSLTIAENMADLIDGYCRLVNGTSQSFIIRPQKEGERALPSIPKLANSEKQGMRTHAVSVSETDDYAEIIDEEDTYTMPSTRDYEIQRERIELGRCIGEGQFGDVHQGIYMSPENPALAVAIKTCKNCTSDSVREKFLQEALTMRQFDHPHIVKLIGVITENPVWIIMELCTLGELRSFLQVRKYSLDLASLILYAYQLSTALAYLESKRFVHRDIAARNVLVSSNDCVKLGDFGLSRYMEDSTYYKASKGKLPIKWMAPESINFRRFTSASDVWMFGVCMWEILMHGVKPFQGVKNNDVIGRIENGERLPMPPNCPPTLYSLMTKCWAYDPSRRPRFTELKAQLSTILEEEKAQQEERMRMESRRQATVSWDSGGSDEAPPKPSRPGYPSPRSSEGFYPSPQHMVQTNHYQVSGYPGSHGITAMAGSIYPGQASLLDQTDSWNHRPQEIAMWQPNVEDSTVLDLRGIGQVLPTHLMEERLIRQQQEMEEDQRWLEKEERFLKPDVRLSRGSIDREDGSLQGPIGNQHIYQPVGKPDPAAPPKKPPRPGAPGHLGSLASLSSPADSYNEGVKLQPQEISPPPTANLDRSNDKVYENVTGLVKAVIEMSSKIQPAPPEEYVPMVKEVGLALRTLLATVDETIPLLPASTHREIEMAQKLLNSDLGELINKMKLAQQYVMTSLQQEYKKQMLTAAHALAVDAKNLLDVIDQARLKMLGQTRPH
Chain of IGFR kinase (P08069 31-1367): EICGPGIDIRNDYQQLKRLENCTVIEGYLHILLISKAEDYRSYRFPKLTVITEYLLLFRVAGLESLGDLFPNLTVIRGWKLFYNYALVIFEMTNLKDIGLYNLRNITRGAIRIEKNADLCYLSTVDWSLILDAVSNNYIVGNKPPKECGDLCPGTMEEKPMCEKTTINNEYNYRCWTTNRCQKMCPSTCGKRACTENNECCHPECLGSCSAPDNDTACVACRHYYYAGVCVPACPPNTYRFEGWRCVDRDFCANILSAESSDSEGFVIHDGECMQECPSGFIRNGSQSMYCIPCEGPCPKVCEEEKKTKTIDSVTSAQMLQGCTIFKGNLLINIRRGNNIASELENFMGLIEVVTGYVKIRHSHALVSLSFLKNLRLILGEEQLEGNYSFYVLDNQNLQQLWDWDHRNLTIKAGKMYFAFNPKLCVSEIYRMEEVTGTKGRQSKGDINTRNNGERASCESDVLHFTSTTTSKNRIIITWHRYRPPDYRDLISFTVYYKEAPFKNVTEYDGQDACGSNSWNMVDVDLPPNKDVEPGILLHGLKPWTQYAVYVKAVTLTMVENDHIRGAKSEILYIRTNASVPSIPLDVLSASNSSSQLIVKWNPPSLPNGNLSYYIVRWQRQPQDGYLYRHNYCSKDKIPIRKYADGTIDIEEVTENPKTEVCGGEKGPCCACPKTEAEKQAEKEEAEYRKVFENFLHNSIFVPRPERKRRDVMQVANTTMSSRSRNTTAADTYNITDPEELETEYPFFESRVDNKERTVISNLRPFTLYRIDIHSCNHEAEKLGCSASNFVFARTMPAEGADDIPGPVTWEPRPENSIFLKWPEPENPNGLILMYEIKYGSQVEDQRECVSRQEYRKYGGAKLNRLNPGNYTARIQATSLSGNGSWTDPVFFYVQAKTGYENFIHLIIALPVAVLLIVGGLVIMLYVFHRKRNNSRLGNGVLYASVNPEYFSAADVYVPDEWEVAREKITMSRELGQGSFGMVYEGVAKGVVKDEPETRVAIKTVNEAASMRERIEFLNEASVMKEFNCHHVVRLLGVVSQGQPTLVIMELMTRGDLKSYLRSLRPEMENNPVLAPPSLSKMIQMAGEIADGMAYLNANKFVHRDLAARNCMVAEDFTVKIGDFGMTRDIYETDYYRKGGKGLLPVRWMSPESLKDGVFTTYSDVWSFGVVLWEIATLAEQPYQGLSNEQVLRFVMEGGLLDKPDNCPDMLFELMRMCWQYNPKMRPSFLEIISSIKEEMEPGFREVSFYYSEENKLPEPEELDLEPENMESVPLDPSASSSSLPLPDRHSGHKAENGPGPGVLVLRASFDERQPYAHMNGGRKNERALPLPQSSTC

In the case of `CN(C)CCN(Cc1ccc(Cl)cc1)c1ccccn1` [C4, N′-[(4-chlorophenyl)methyl]-N,N-dimethyl-N′-pyridin-2-yl-ethane-1,2-diamine], the IC50 [1] is reported as 50 to 100 µM, the IC50 [2] is reported as 50 to 100 µM and the “tumor growth reduction (tumor weight)” value ([3]; after 4 weeks of treatment) is reported as 71.7%. The “tumor volume smaller in the treated group” value ([3]; after 4 weeks of treatment) was 58%, the “size of treated tumors vs control group” value ([3]; after 9 days of treatment) was “significantly smaller” and the “weight of treated tumors vs control group” value ([3]; after 27 days of treatment) was “significantly smaller”. For the same molecule, the “tumor growth reduction (tumor weight)” value ([4]; after 3 weeks of treatment) was 57%, the “weight of treated tumors vs control group” value ([4]; after 23 days of treatment) was “significantly smaller” and the MTD at 7 days [5] was at least 150 mg/kg. The “clinical signs, low- and medium-dose groups” value ([6]; mouse, in vivo) was “slight ruffled fur”, the “toxicity findings, high-dose group” value ([6]; mouse, in vivo, po, 300 mg/kg) was “weight loss, severe clinical signs of abdominal distention, and mortality due to gastrointestinal dilatation” and the “mortality and body weight, low- and medium-dose groups” value ([6]; oral gavage daily days 0-6, 75 and 150 mg/kg) was “no mortality or decrement in mean body weight”. For the same molecule, the FAK dephosphorylation [7] was “specifically dephosphorylates FAK”.
For `CNC(=O)c1ccccc1Nc1nc(Nc2ccc(N3CCOCC3)cc2OC)ncc1Cl` [TAE226], the Y397-FAK phosphorylation [8] is listed as “effectively blocked”, the “tumor growth in vivo” value [9] is listed as “inhibited glioma and ovarian tumor growth in vivo” and the IGFR kinase inhibition [10] is listed as “inhibited IGFR kinase”.
For `CS(=O)(=O)c1cccc(CNc2nc(Nc3ccc4c(c3)CCC(=O)N4)ncc2C(F)(F)F)c1` [PF-573,228], the “cell growth and survival in vitro” value [11] is listed as “did not inhibit cell growth and survival in vitro” and the cell motility [11] is listed as “inhibited only motility”.

Source: patent publication US20140194477A1, “KINASE PROTEIN BINDING INHIBITORS” (Roswell Park Cancer Institute, priority 2011, published 2014)
